Measured values as given in PubChem BioAssay (NCI).
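Values below derive from 48-hour exposures of cells grown in 96-well plates, with endpoints linearly interpolated between the two concentrations bracketing the appropriate inhibition level. At the TGI there is no net growth.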

Tests used:
Experiment in all cases: NCI tumour cell line growth inhibition, 48 h
K-562 leukemia = test system: K-562 leukemia
HOP-18 NSCLC = test system: HOP-18 NSCLC
MALME-3M melanoma = test system: MALME-3M melanoma
HCC-2998 colon = test system: HCC-2998 colon
SK-OV-3 ovarian = test system: SK-OV-3 ovarian
IGROV1 ovarian = test system: IGROV1 ovarian
NCI-H522 lung = test system: NCI-H522 lung
CAKI-1 renal = test system: CAKI-1 renal
HCT-15 colon = test system: HCT-15 colon
DLD-1 colon = test system: DLD-1 colon
SNB-19 CNS = test system: SNB-19 CNS
SN12K1 renal = test system: SN12K1 renal
SF-539 CNS = test system: SF-539 CNS
UACC-257 melanoma = test system: UACC-257 melanoma
OVCAR-3 ovarian = test system: OVCAR-3 ovarian
P388 leukemia = test system: P388 leukemia
MOLT-4 leukemia = test system: MOLT-4 leukemia
SK-MEL-2 melanoma = test system: SK-MEL-2 melanoma
UO-31 renal = test system: UO-31 renal
SNB-78 CNS = test system: SNB-78 CNS
P388/ADR leukemia = test system: P388/ADR leukemia
UACC-62 melanoma = test system: UACC-62 melanoma
MCF7 breast = test system: MCF7 breast
DMS 273 small cell lung = test system: DMS 273 small cell lung
SF-295 CNS = test system: SF-295 CNS
NCI/ADR-RES ovarian = test system: NCI/ADR-RES ovarian
COLO 205 colon = test system: COLO 205 colon
RXF 393 renal = test system: RXF 393 renal
HL-60(TB) leukemia = test system: HL-60(TB) leukemia
SF-268 CNS = test system: SF-268 CNS
SW-620 colon = test system: SW-620 colon
CCRF-CEM leukemia = test system: CCRF-CEM leukemia
NCI-H226 lung = test system: NCI-H226 lung
HCT-116 colon = test system: HCT-116 colon
OVCAR-5 ovarian = test system: OVCAR-5 ovarian
HOP-92 NSCLC = test system: HOP-92 NSCLC
NCI-H23 lung = test system: NCI-H23 lung
EKVX NSCLC = test system: EKVX NSCLC
HT29 colon = test system: HT29 colon
OVCAR-4 ovarian = test system: OVCAR-4 ovarian
SNB-75 CNS = test system: SNB-75 CNS
U251 CNS = test system: U251 CNS
OVCAR-8 ovarian = test system: OVCAR-8 ovarian
SK-MEL-5 melanoma = test system: SK-MEL-5 melanoma
NCI-H460 lung = test system: NCI-H460 lung
RPMI-8226 leukemia = test system: RPMI-8226 leukemia
SK-MEL-28 melanoma = test system: SK-MEL-28 melanoma
HOP-62 NSCLC = test system: HOP-62 NSCLC
LOX IMVI melanoma = test system: LOX IMVI melanoma
M19-MEL melanoma = test system: M19-MEL melanoma
XF 498 CNS = test system: XF 498 CNS
A498 renal = test system: A498 renal
KM20L2 colon = test system: KM20L2 colon
SN12C renal = test system: SN12C renal
KM12 colon = test system: KM12 colon
A549 NSCLC = test system: A549 NSCLC
DMS 114 small cell lung = test system: DMS 114 small cell lung

C[C@H]1COC(c2ccccn2)=N1
TGI (K-562 leukemia): > 100 µM | TGI (HOP-18 NSCLC): > 100 µM | TGI (MALME-3M melanoma): > 100 µM | TGI (HCC-2998 colon): > 100 µM | TGI (SK-OV-3 ovarian): > 100 µM | TGI (IGROV1 ovarian): > 100 µM | TGI (NCI-H522 lung): > 100 µM | TGI (CAKI-1 renal): > 100 µM | TGI (HCT-15 colon): > 100 µM | TGI (DLD-1 colon): > 100 µM | TGI (SNB-19 CNS): > 100 µM | TGI (SN12K1 renal): > 100 µM | TGI (SF-539 CNS): > 100 µM | TGI (UACC-257 melanoma): > 100 µM | TGI (OVCAR-3 ovarian): > 100 µM | TGI (P388 leukemia): > 100 µM | TGI (MOLT-4 leukemia): > 100 µM | TGI (SK-MEL-2 melanoma): > 100 µM | TGI (UO-31 renal): > 100 µM | TGI (SNB-78 CNS): > 100 µM | TGI (P388/ADR leukemia): > 100 µM | TGI (UACC-62 melanoma): > 100 µM | TGI (MCF7 breast): > 100 µM | TGI (DMS 273 small cell lung): > 100 µM | TGI (SF-295 CNS): > 100 µM | TGI (NCI/ADR-RES ovarian): > 100 µM | TGI (COLO 205 colon): > 100 µM | TGI (RXF 393 renal): > 100 µM | TGI (HL-60(TB) leukemia): > 100 µM | TGI (SF-268 CNS): > 100 µM | TGI (SW-620 colon): > 100 µM | TGI (CCRF-CEM leukemia): > 100 µM | TGI (NCI-H226 lung): > 100 µM | TGI (HCT-116 colon): > 100 µM | TGI (OVCAR-5 ovarian): > 100 µM | TGI (HOP-92 NSCLC): > 100 µM | TGI (NCI-H23 lung): > 100 µM | TGI (EKVX NSCLC): > 100 µM | TGI (HT29 colon): > 100 µM | TGI (OVCAR-4 ovarian): > 100 µM | TGI (SNB-75 CNS): > 100 µM | TGI (U251 CNS): > 100 µM | TGI (OVCAR-8 ovarian): > 100 µM | TGI (SK-MEL-5 melanoma): > 100 µM | TGI (NCI-H460 lung): > 100 µM | TGI (RPMI-8226 leukemia): > 100 µM | TGI (SK-MEL-28 melanoma): > 100 µM | TGI (HOP-62 NSCLC): > 100 µM | TGI (LOX IMVI melanoma): > 100 µM | TGI (M19-MEL melanoma): > 100 µM | TGI (XF 498 CNS): > 100 µM | TGI (A498 renal): > 100 µM | TGI (KM20L2 colon): > 100 µM | TGI (SN12C renal): > 100 µM | TGI (KM12 colon): > 100 µM | TGI (A549 NSCLC): > 100 µM

CC[C@@]1(O)C[C@H](OC2CC(N(C)C)C(OC3CC(O)C(OC4CC(O)C(O)C(C)O4)C(C)O3)C(C)O2)c2c(cc3c(c2O)C(=O)c2c(O)ccc(O)c2C3=O)[C@H]1C(=O)OC (stereo partly drawn)
TGI (K-562 leukemia): 1.7 µM | TGI (HOP-18 NSCLC): 1.32 µM | TGI (MALME-3M melanoma): 0.196 µM | TGI (HCC-2998 colon): 0.662 µM | TGI (SK-OV-3 ovarian): 3.04 µM | TGI (IGROV1 ovarian): 3.84 µM | TGI (NCI-H522 lung): 0.153 µM | TGI (CAKI-1 renal): 0.142 µM | TGI (HCT-15 colon): 2.66 µM | TGI (DLD-1 colon): 3.59 µM | TGI (SNB-19 CNS): 4.3 µM | TGI (SN12K1 renal): 0.0678 µM | TGI (SF-539 CNS): 0.341 µM | TGI (UACC-257 melanoma): 0.184 µM | TGI (OVCAR-3 ovarian): 0.347 µM | TGI (P388 leukemia): 0.0892 µM | TGI (MOLT-4 leukemia): 0.103 µM | TGI (SK-MEL-2 melanoma): 0.124 µM | TGI (UO-31 renal): 1.22 µM | TGI (SNB-78 CNS): 2.1 µM | TGI (P388/ADR leukemia): 2.23 µM | TGI (UACC-62 melanoma): 0.106 µM | TGI (MCF7 breast): 0.959 µM | TGI (DMS 273 small cell lung): 0.482 µM | TGI (SF-295 CNS): 0.654 µM | TGI (NCI/ADR-RES ovarian): 10.2 µM | TGI (COLO 205 colon): 0.39 µM | TGI (RXF 393 renal): 0.112 µM | TGI (HL-60(TB) leukemia): 1.37 µM | TGI (SF-268 CNS): 1.49 µM | TGI (SW-620 colon): 1.94 µM | TGI (CCRF-CEM leukemia): 1.81 µM | TGI (NCI-H226 lung): 0.203 µM | TGI (HCT-116 colon): 0.118 µM | TGI (OVCAR-5 ovarian): 3.1 µM | TGI (HOP-92 NSCLC): 0.867 µM | TGI (NCI-H23 lung): 0.314 µM | TGI (EKVX NSCLC): 0.982 µM | TGI (HT29 colon): 0.871 µM | TGI (OVCAR-4 ovarian): 0.564 µM | TGI (SNB-75 CNS): 0.39 µM | TGI (U251 CNS): 3.18 µM | TGI (OVCAR-8 ovarian): 1.15 µM | TGI (SK-MEL-5 melanoma): 0.135 µM | TGI (NCI-H460 lung): 0.103 µM | TGI (RPMI-8226 leukemia): 0.385 µM | TGI (SK-MEL-28 melanoma): 0.293 µM | TGI (HOP-62 NSCLC): 0.5 µM | TGI (LOX IMVI melanoma): 3.67 µM | TGI (M19-MEL melanoma): 0.21 µM | TGI (XF 498 CNS): 0.225 µM | TGI (A498 renal): 0.0891 µM | TGI (KM20L2 colon): 2.62 µM | TGI (DMS 114 small cell lung): 0.959 µM | TGI (SN12C renal): 2.09 µM | TGI (KM12 colon): 3.03 µM | TGI (A549 NSCLC): 19.8 µM
